# Data published in US6441195B1, “Substituted sulphonylamino(thio) carbonyl compounds” (Bayer Aktiengesellschaft, priority 1995, dated 2002).
# Assays:
# Type in all cases: in vivo
# weeds = assay: Pre-emergence test (greenhouse), activity against weeds; conditions: in words
# Method in brief: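 Compound formulated in acetone with alkylaryl polyglycol ether emulsifier, diluted in water, and watered onto soil about 24 h after sowing, dosed by application rate per unit area. Damage rated after three weeks as % versus untreated control (0% = no action).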
# Poa = assay: Pre-emergence test/Greenhouse, Poa; conditions: after three weeks
# Method in brief: (§1)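 In this greenhouse test the application rate per unit area, not the concentration of the preparation, defines the dose; the emulsified preparation is applied to soil about 24 h post-sowing. Plants are scored for % damage versus untreated control after three weeks.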
# Lolium = assay: Pre-emergence test/Greenhouse, Lolium; conditions: after three weeks
# Method in brief: as §1
# Maize = assay: Pre-emergence test/Greenhouse, Maize; conditions: in vivo
# Method in brief: as §1
# Soya beans = assay: Pre-emergence test/Greenhouse, Soya beans; conditions: in vivo
# Method in brief: as §1
# Matricaria = assay: Pre-emergence test/Greenhouse, Matricaria; conditions: after three weeks
# Method in brief: as §1
# Ambrosia = assay: Pre-emergence test/Greenhouse, Ambrosia; conditions: after three weeks
# Method in brief: as §1
# Sorghum = assay: Pre-emergence test/Greenhouse, Sorghum; conditions: after three weeks
# Method in brief: as §1
# Solanum = assay: Pre-emergence test/Greenhouse, Solanum; conditions: after three weeks
# Method in brief: as §1
smiles,measurement,setting,value
CCCc1nn(C(=O)[N-]S(=O)(=O)c2c(C)cccc2C(=O)OC)c(=O)n1C.[Na+] [Example 154],activity against weeds,weeds,very strong activity against weeds
same,"degree of damage to the plants (% damage vs untreated control), Poa",Poa; 60 g of ai./ha,95%
same,"degree of damage to the plants (% damage vs untreated control), Lolium",Lolium; 60 g of ai./ha,95%
same,"degree of damage to the plants (% damage vs untreated control), Maize",Maize,0%
same,"degree of damage to the plants (% damage vs untreated control), Soya beans",Soya beans,0%
same,"degree of damage to the plants (% damage vs untreated control), Matricaria",Matricaria; 60 g of ai./ha,70%
same,"degree of damage to the plants (% damage vs untreated control), Ambrosia",Ambrosia; 60 g of ai./ha,70%
same,"degree of damage to the plants (% damage vs untreated control), Sorghum",Sorghum; 60 g of ai./ha,95%
same,"degree of damage to the plants (% damage vs untreated control), Solanum",Solanum; 60 g of ai./ha,90%
CCOC(=O)c1cccc(C)c1S(=O)(=O)NC(=O)c1noc(C)n1 [Example 10],activity against weeds,weeds,very strong activity against weeds
same,"degree of damage to the plants (% damage vs untreated control), Poa",Poa; 250 g of ai./ha,90%
same,"degree of damage to the plants (% damage vs untreated control), Lolium",Lolium; 250 g of ai./ha,80%
same,"degree of damage to the plants (% damage vs untreated control), Maize",Maize,0%
same,"degree of damage to the plants (% damage vs untreated control), Soya beans",Soya beans,20%
same,"degree of damage to the plants (% damage vs untreated control), Matricaria",Matricaria; 250 g of ai./ha,95%
same,"degree of damage to the plants (% damage vs untreated control), Ambrosia",Ambrosia; 250 g of ai./ha,95%
same,"degree of damage to the plants (% damage vs untreated control), Sorghum",Sorghum; 250 g of ai./ha,70%
same,"degree of damage to the plants (% damage vs untreated control), Solanum",Solanum; 250 g of ai./ha,95%
CCCOC(=O)c1cccc(Cl)c1S(=O)(=O)NC(=O)n1nc(OCC)n(C)c1=O [Example 134],activity against weeds,weeds,very strong activity against weeds
same,"degree of damage to the plants (% damage vs untreated control), Poa",Poa; 500 g of ai./ha,90%
same,"degree of damage to the plants (% damage vs untreated control), Lolium",Lolium; 500 g of ai./ha,95%
same,"degree of damage to the plants (% damage vs untreated control), Maize",Maize,0%
same,"degree of damage to the plants (% damage vs untreated control), Soya beans",Soya beans,20%
same,"degree of damage to the plants (% damage vs untreated control), Matricaria",Matricaria; 500 g of ai./ha,90%
same,"degree of damage to the plants (% damage vs untreated control), Ambrosia",Ambrosia; 500 g of ai./ha,80%
same,"degree of damage to the plants (% damage vs untreated control), Sorghum",Sorghum; 500 g of ai./ha,70%
same,"degree of damage to the plants (% damage vs untreated control), Solanum",Solanum; 500 g of ai./ha,95%
CCOc1nn(C(=O)NS(=O)(=O)c2c(Cl)cccc2C(=O)OC)c(=O)n1C [Example 129],activity against weeds,weeds,very strong activity against weeds
same,"degree of damage to the plants (% damage vs untreated control), Poa",Poa; 250 g of ai./ha,95%
same,"degree of damage to the plants (% damage vs untreated control), Lolium",Lolium; 250 g of ai./ha,95%
same,"degree of damage to the plants (% damage vs untreated control), Maize",Maize,10%
same,"degree of damage to the plants (% damage vs untreated control), Soya beans",Soya beans,10%
same,"degree of damage to the plants (% damage vs untreated control), Matricaria",Matricaria; 250 g of ai./ha,90%
same,"degree of damage to the plants (% damage vs untreated control), Ambrosia",Ambrosia; 250 g of ai./ha,60%
same,"degree of damage to the plants (% damage vs untreated control), Sorghum",Sorghum; 250 g of ai./ha,90%
same,"degree of damage to the plants (% damage vs untreated control), Solanum",Solanum; 250 g of ai./ha,95%
COC(=O)c1cccc(C)c1S(=O)(=O)[N-]C(=O)n1nc(SC)n(C)c1=O.[Na+] [Example 145],activity against weeds,weeds,very strong activity against weeds
same,"degree of damage to the plants (% damage vs untreated control), Poa",Poa; 60 g of ai./ha,95%
same,"degree of damage to the plants (% damage vs untreated control), Lolium",Lolium; 60 g of ai./ha,95%
same,"degree of damage to the plants (% damage vs untreated control), Maize",Maize,0%
same,"degree of damage to the plants (% damage vs untreated control), Soya beans",Soya beans,0%
same,"degree of damage to the plants (% damage vs untreated control), Matricaria",Matricaria; 60 g of ai./ha,60%
same,"degree of damage to the plants (% damage vs untreated control), Ambrosia",Ambrosia; 60 g of ai./ha,95%
same,"degree of damage to the plants (% damage vs untreated control), Sorghum",Sorghum; 60 g of ai./ha,95%
same,"degree of damage to the plants (% damage vs untreated control), Solanum",Solanum; 60 g of ai./ha,95%
C#CCSc1nn(C(=O)NS(=O)(=O)c2c(C)cccc2C(=O)OC)c(=O)n1C1CC1 [Example 160],activity against weeds,weeds,very strong activity against weeds
same,"degree of damage to the plants (% damage vs untreated control), Poa",Poa; 60 g of ai./ha,90%
same,"degree of damage to the plants (% damage vs untreated control), Lolium",Lolium; 60 g of ai./ha,90%
same,"degree of damage to the plants (% damage vs untreated control), Maize",Maize,30%
same,"degree of damage to the plants (% damage vs untreated control), Soya beans",Soya beans,10%
same,"degree of damage to the plants (% damage vs untreated control), Matricaria",Matricaria; 60 g of ai./ha,95%
same,"degree of damage to the plants (% damage vs untreated control), Ambrosia",Ambrosia; 60 g of ai./ha,90%
same,"degree of damage to the plants (% damage vs untreated control), Sorghum",Sorghum; 60 g of ai./ha,60%
same,"degree of damage to the plants (% damage vs untreated control), Solanum",Solanum; 60 g of ai./ha,90%
CCCOC(=O)c1cccc(C)c1S(=O)(=O)NC(=O)n1nc(OCC)n(C)c1=O [Example 21],activity against weeds,weeds,very strong activity against weeds
same,"degree of damage to the plants (% damage vs untreated control), Poa",Poa; 125 g of ai./ha,95%
same,"degree of damage to the plants (% damage vs untreated control), Lolium",Lolium; 125 g of ai./ha,95%
same,"degree of damage to the plants (% damage vs untreated control), Maize",Maize,0%
same,"degree of damage to the plants (% damage vs untreated control), Soya beans",Soya beans,0%
same,"degree of damage to the plants (% damage vs untreated control), Matricaria",Matricaria; 125 g of ai./ha,95%
same,"degree of damage to the plants (% damage vs untreated control), Ambrosia",Ambrosia; 125 g of ai./ha,95%
same,"degree of damage to the plants (% damage vs untreated control), Sorghum",Sorghum; 125 g of ai./ha,95%
same,"degree of damage to the plants (% damage vs untreated control), Solanum",Solanum; 125 g of ai./ha,95%
